We go through 11 substances from PMC10902354, “Deficiency in PHD2-mediated hydroxylation of HIF2α underlies Pacak-Zhuang syndrome” (Communications Biology, 2024).

In the test the test system is hypoxia-responsive element (HRE) reporter, HEK293A cells. Nature of the test: Dual-luciferase reporter assay of HIF2α transcriptional activity (VEGFA-HRE) in HEK293A cells. The class given is cell-based. The conditions noted are these: for HIF2α transcriptional activity, Firefly(RLU)/Renilla(RLU) (Normalized To WT Mean): Fig. 6a, normal oxygenated conditions; for HIF2α transcriptional activity, Firefly(RLU)/Renilla(RLU) (Normalized to WT Mean): Fig. 6b; for HIF2α transcriptional activity, Firefly(RLU)/Renilla(RLU) (Normalized to WT Mean) / HRE-driven transcriptional activity (in words): normoxic conditions; for HRE-driven transcriptional activity (in words): relative to HIF2α WT or other mutant. An excerpt: The following previously described plasmids were used in this study: pcDNA3-HA-VHL30[28] and pET-46-HIS6-PHD2[4]. pGL3-VEGFA-HRE was generated by amplifying nucleotides 1271-1797 of human VEGFA CDS (AH001553.2) using primers introducing 5’ KpnI and 3’ XhoI sites; digested PCR products were subcloned into pGL3-Basic (Promega) cut with KpnI and XhoI. pRL-SV40 was obtained from Promega. pcDNA3-HA-HIF2α has been previously described. Class 1 (D539N, A530V, P531A, Y532C) and Class 2 (M535T, G537R, P534R, Y532H) HIF2α mutants, as well as mutant P405A, were generated using QuikChange site-directed mutagenesis (Agilent) and confirmed by DNA sequencing. pcDNA3-HA-HIF2α -P405A/P531A was obtained from Addgene (Addgene plasmid # 18956)[29]. The α-HA tag antibody was obtained from Cell Signaling (C29F4). HIFα-CODD peptides were custom synthesized by Genscript and supplied at ≥ 95% purity. All synthesized peptides were C-terminally amidated, peptides used for MST binding studies and crystallography were N-terminally acetylated and peptides used for the indirect hydroxylation assays were N-terminally biotinylated. For crystallography and MST experiments peptides were dissolved directly into 50 mM Tris pH 8.0 buffer and for indirect hydroxylation assays N-terminally biotinylated peptides were initially dissolved in DMSO to create stock solutions and further diluted into aqueous buffers for immobilization on streptavidin agarose beads. The sequences of each peptide can be found in Supplementary Table 1.
HEK293A cells were maintained in DMEM (Wisent #319-015) supplemented with 10% (v/v) Fetal Bovine Serum (FBS, Wisent #098-150) in a humidified atmosphere at 37 °C and 5% CO2. Transfection complexes containing 2 μg of total DNA (0.8 ug pcDNA3-HA, 0.9 μg pGL3-VEGFa-HRE, 0.1 μg pRL-SV40, and 0.2 μg of either pcDNA3-HA-HIF2α-WT or mutant) and 8 ug Polyethyleneimine pH 7.2 (Polysciences, Cat #23966) in 400 μl OptiMEM™ Reduced Serum Medium (Gibco #31985070) were incubated for 15 min at room temperature, then were added to 5 × 10^5 HEK293A cells (diluted in 400 μl OptiMEM™) and incubated for an additional 5 min. Mixture was plated in six-well plates containing 2 ml complete medium and incubated at 37 °C, 5% CO2 for 24 h. Firefly luciferase and Renilla luciferase activity were measured with the Dual-Luciferase Reporter Assay System (Promega #E1960) according to the manufacturer’s instructions. Measurements (1 s) were recorded using a Varioskan Lux microplate reader (Thermo Fisher Scientific). For each sample, firefly RLU values were divided by corresponding Renilla RLU values.

As to “HIF2a-A530V: Class 1 HIF2α mutant expressed from plasmid in HEK293A cells”, the “HIF2α transcriptional activity, Firefly(RLU)/Renilla(RLU) (Normalized To WT Mean)” value was determined as 2.033 (Exp 1, 24 h); 1.3534 (Exp 2, 24 h); 1.897 (Exp 3, 24 h); 3.054 (Exp 4, 24 h); 1.561 (Exp 5, 24 h); 1.98 (mean of Exp 1-5, 24 h).

As to “HIF2a-D539N: Class 1 HIF2α mutant expressed from plasmid in HEK293A cells”, the “HIF2α transcriptional activity, Firefly(RLU)/Renilla(RLU) (Normalized To WT Mean)” value was determined as 2.166 (Exp 1, 24 h); 1.679 (Exp 2, 24 h); 1.625 (Exp 3, 24 h); 2.569 (Exp 4, 24 h); 1.2135 (Exp 5, 24 h); 1.85 (mean of Exp 1-5, 24 h).

Take “HIF2a-G537R: Class 2 HIF2α mutant expressed from plasmid in HEK293A cells”: the “HIF2α transcriptional activity, Firefly(RLU)/Renilla(RLU) (Normalized To WT Mean)” value (Exp 1, 24 h) was 1.297; the “HIF2α transcriptional activity, Firefly(RLU)/Renilla(RLU) (Normalized To WT Mean)” value (Exp 2, 24 h) is on record as 1.639; the “HIF2α transcriptional activity, Firefly(RLU)/Renilla(RLU) (Normalized To WT Mean)” value (Exp 3, 24 h) was determined as 0.7606; the “HIF2α transcriptional activity, Firefly(RLU)/Renilla(RLU) (Normalized To WT Mean)” value (Exp 4, 24 h) turned out to be 1.668; the “HIF2α transcriptional activity, Firefly(RLU)/Renilla(RLU) (Normalized To WT Mean)” value (Exp 5, 24 h) came out at 0.917; the “HIF2α transcriptional activity, Firefly(RLU)/Renilla(RLU) (Normalized To WT Mean)” value (mean of Exp 1-5, 24 h) is reported as 1.256.

As for “HIF2a-M535T: Class 2 HIF2α mutant expressed from plasmid in HEK293A cells”, the “HIF2α transcriptional activity, Firefly(RLU)/Renilla(RLU) (Normalized To WT Mean)” value is listed as 1.412 (Exp 1, 24 h); 1.394 (Exp 2, 24 h); 0.5168 (Exp 3, 24 h); 1.444 (Exp 4, 24 h); 0.9762 (Exp 5, 24 h); 1.149 (mean of Exp 1-5, 24 h).

Consider “HIF2a-P405A/P531A: HIF2α NODD and CODD site double mutant (Addgene plasmid 18956)”, for which the “HIF2α transcriptional activity, Firefly(RLU)/Renilla(RLU) (Normalized to WT Mean)” value by setting is: (Exp 1, 24 h) 1.594; (Exp 2, 24 h) 4.627; (Exp3, 24 h) 2.493; (mean of Exp 1-3, 24 h) 2.905. Also, for the setting “listed as HIF2αP405A/P531A”, the “HRE-driven transcriptional activity (in words)” value is on record as “indistinguishable transcriptional activity from HIF2αP531A single mutant”.

Consider “HIF2a-P405A: HIF2α NODD site mutant expressed from plasmid in HEK293A cells”, for which the “HIF2α transcriptional activity, Firefly(RLU)/Renilla(RLU) (Normalized to WT Mean)” value runs as follows: (Exp 1, 24 h) 0.6521; (Exp 2, 24 h) 1.374; (Exp3, 24 h) 0.7703; (mean of Exp 1-3, 24 h) 0.9323. Besides, the “HRE-driven transcriptional activity (in words)” value (listed as P405A mutant) is reported as “transcriptional activity comparable to wild-type HIF2α” and the “HRE-driven transcriptional activity (in words)” value (listed as P405A mutation) is recorded as “no significant increase in HIF2α transcriptional activation activity”.

As for “HIF2a-P531A: Class 1 HIF2α mutant (CODD site mutant) expressed from plasmid in HEK293A cells”, the “HIF2α transcriptional activity, Firefly(RLU)/Renilla(RLU) (Normalized To WT Mean)” value came out at 2.696 (Exp 1, 24 h); 2.508 (Exp 2, 24 h); 2.211 (Exp 3, 24 h); 4.182 (Exp 4, 24 h); 1.7617 (Exp 5, 24 h); 2.672 (mean of Exp 1-5, 24 h). Besides, the “HIF2α transcriptional activity, Firefly(RLU)/Renilla(RLU) (Normalized to WT Mean)” value is 2.003 (Exp 1, 24 h); 3.782 (Exp 2, 24 h); 2.069 (Exp3, 24 h); 2.618 (mean of Exp 1-3, 24 h).

Consider “HIF2a-P534R: Class 2 HIF2α mutant expressed from plasmid in HEK293A cells”, for which the “HIF2α transcriptional activity, Firefly(RLU)/Renilla(RLU) (Normalized To WT Mean)” value (Exp 1, 24 h) is 1.1133; the “HIF2α transcriptional activity, Firefly(RLU)/Renilla(RLU) (Normalized To WT Mean)” value (Exp 2, 24 h) turned out to be 1.547; the “HIF2α transcriptional activity, Firefly(RLU)/Renilla(RLU) (Normalized To WT Mean)” value (Exp 3, 24 h) was 1.102; the “HIF2α transcriptional activity, Firefly(RLU)/Renilla(RLU) (Normalized To WT Mean)” value (Exp 4, 24 h) stood at 1.425; the “HIF2α transcriptional activity, Firefly(RLU)/Renilla(RLU) (Normalized To WT Mean)” value (Exp 5, 24 h) was 0.8617; the “HIF2α transcriptional activity, Firefly(RLU)/Renilla(RLU) (Normalized To WT Mean)” value (mean of Exp 1-5, 24 h) came to 1.21.

In the case of “HIF2a-WT: HA-HIF2α WT expressed from pcDNA3-HA-HIF2α in HEK293A cells”, the “HIF2α transcriptional activity, Firefly(RLU)/Renilla(RLU) (Normalized To WT Mean)” value runs as follows: (Exp 1, 24 h) 1.095; (Exp 2, 24 h) 1.349; (Exp 3, 24 h) 0.5003; (Exp 4, 24 h) 1.339; (Exp 5, 24 h) 0.7176; (mean of Exp 1-5, 24 h) 1. Besides, the “HIF2α transcriptional activity, Firefly(RLU)/Renilla(RLU) (Normalized to WT Mean)” value reads like this: (Exp 1, 24 h) 0.6881; (Exp 2, 24 h) 1.449; (Exp3, 24 h) 0.8624; (mean of Exp 1-3, 24 h) 1.

As to “HIF2a-Y532C: Class 1 HIF2α mutant expressed from plasmid in HEK293A cells”, the “HIF2α transcriptional activity, Firefly(RLU)/Renilla(RLU) (Normalized To WT Mean)” value is reported as 1.579 (Exp 1, 24 h); 1.687 (Exp 2, 24 h); 2.039 (Exp 3, 24 h); 3.004 (Exp 4, 24 h); 1.351 (Exp 5, 24 h); 1.932 (mean of Exp 1-5, 24 h).

Take “HIF2a-Y532H: Class 2 HIF2α mutant expressed from plasmid in HEK293A cells”: the “HIF2α transcriptional activity, Firefly(RLU)/Renilla(RLU) (Normalized To WT Mean)” value was 1.505 (Exp 1, 24 h); 1.636 (Exp 2, 24 h); 0.8256 (Exp 3, 24 h); 1.673 (Exp 4, 24 h); 0.9402 (Exp 5, 24 h); 1.316 (mean of Exp 1-5, 24 h).
